Laboratory results: patent US20240174618A1, “SUBSTITUTED (2-HETEROARYLOXYPHENYL)SULFONATES, SALTS THEREOF AND THEIR USE AS HERBICIDAL AGENTS” (Bayer Aktiengesellschaft, priority 2021, published 2024)

What was measured:
Format in all cases: in vivo
Oryza sativa (ORYSA) [1] = test: F. Post-emergence effect on useful plants, ORYSA; settings: useful plant, application rate 80 g/ha
Description: (§1) Seeds of monocotyledonous and dicotyledonous weeds and crop plants were placed in sandy loam in plastic or organic planting pots, covered with soil and cultivated in a greenhouse under controlled growth conditions. 2 to 3 weeks after sowing, the test plants were treated at the one-leaf stage. The compounds of the invention, formulated in the form of wettable powders (WP) or as emulsion concentrates (EC), were then sprayed onto the green parts of the plants as aqueous suspension or emulsion with addition of 0.5% additive at a water application rate of 600 l/ha (converted). After the test plants had been kept in the greenhouse under optimum growth conditions for about 3 weeks, the activity of the preparations was rated visually in comparison to untreated controls.
(§2) For example, • 100% efficacy=plants have died, • 0% action=like untreated control plants.
(§3) Tables F1a to F4 below show the effects of selected compounds of the general formula (I) according to table 1 on various useful plants at an application rate corresponding to 320 g/ha or less, which were obtained by the experimental procedure mentioned above.

Oryza sativa (ORYSA) [2] = test: D. Pre-emergence effect on useful plants, ORYSA; settings: useful plant, application rate 80 g/ha
Description: Seeds of monocotyledonous and dicotyledonous weed plants and crop plants were placed in plastic or organic planting pots and covered with soil. The compounds of the invention, formulated in the form of wettable powders (WP) or as emulsion concentrates (EC), were then applied to the surface of the covering soil as aqueous suspension or emulsion with addition of 0.5% additive at a water application rate equivalent to 600 l/ha (converted). After the treatment, the pots were placed in a greenhouse and kept under good growth conditions for the test plants. After about 3 weeks, the efficacy of the preparations was scored visually in comparison with untreated controls as percentages. For example, • 100% efficacy=plants have died, • 0% efficacy=like untreated control plants.
Tables D1a to D5b below show the effects of selected compounds of the general formula (I) according to table 1 on various useful plants at an application rate corresponding to 320 g/ha or less, which were obtained by the experimental procedure mentioned above.

Glycine max (GLXMA) [3] = test: F. Post-emergence effect on useful plants, GLXMA; settings: useful plant, application rate 80 g/ha
Description: as §1, §2, §3

Glycine max (GLXMA) [4] = test: D. Pre-emergence effect on useful plants, GLXMA; settings: useful plant
How it was run: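 Seeds sown in pots and covered with soil; WP or EC formulations sprayed on the soil surface as aqueous suspension/emulsion with 0.5% additive at 600 l/ha water. Plants grown in greenhouse; crop damage scored visually after about 3 weeks as % versus untreated controls (100% = dead, 0% = like control).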

In the case of `O=S(=O)(CCCCl)Oc1cccc(F)c1Oc1ncc(Cl)cn1` [Example I-13], the “Post-emergence efficacy against ORYSA in %” value (Oryza sativa (ORYSA) [1]) was 10%, the “Pre-emergence efficacy against ORYSA in %” value (Oryza sativa (ORYSA) [2]) was 10% and the “Post-emergence efficacy against GLXMA in %” value (Glycine max (GLXMA) [3]) was 10%. The “Pre-emergence efficacy against GLXMA in %” value (Glycine max (GLXMA) [4]; application rate 80 g/ha) was 10% and the “Pre-emergence efficacy against GLXMA in %” value (Glycine max (GLXMA) [4]; application rate 320 g/ha) was 20%.
